In US20240009182A1, “REPURPOSED COMPOUND AS THERAPEUTIC FOR HPV-ASSOCIATED CANCERS” (The Chinese University of Hong Kong, priority 2022, published 2024):

Key:
[1] = system: HPV16 E7 protein in CaSki cells; assay: HPV16 E7 protein level by western blotting in treated CaSki cells; format: cell-based
Excerpt: FIG. 1A. The representative immunoblots showing the level of HPV16 E7 constitutively expressed in CaSki cells upon treatment with inhibitors specific for USP7 (P5091, FT671, GNE-6776 and HBX 19818) and that targeting pan-USPs (PR-619) at the indicated concentrations. DMSO served as a vehicle control treatment. Cells were then collected and lysed, the levels of USP7 and HPV16 E7 proteins were detected using the respective specific antibodies. Beta-actin (β-actin) was included as a loading control. KDa: kilodalton. FIG. 1B. The bar chart showing the relative protein level of HPV16 E7 normalized by β-actin (n=3). Data are expressed as mean±standard error of the mean (SEM); Right panel showing the images at 100× magnification of the morphology of the CaSki cells treated with P5091, FT671, GNE-6776, HBX 19818 and PR-619 at concentrations indicated. FIG. 1C. The immunoblots showing the levels of USP7 and HPV16 E7 proteins in CaSki and C-33A (an HPV-null cervical cancer cell line) upon downregulation of USP7 using siRNA targeting specifically against human USP7. FIG. 1D. The immunoblots showing the protein level of HPV16 E7 treated with different concentrations of HBX 19818. CaSki cells were treated with different concentrations of HBX 19818 or DMSO as indicated. Total cell lysates were subjected to western blotting using USP7, β-actin and HPV16 E7 specific antibodies. FIG. 1E. The bar chart showing the relative protein level of HPV16 E7 treated with different concentrations of HBX 19818 normalized by β-actin (n=3). Data are expressed as mean±SEM. FIG. 1F. The curve chart showing the level of E7 protein with increasing concentrations of HBX 19818 treatment. The percentage of HPV16 E7 protein level was analyzed using the non-linear regression function in GraphPad™ Prism 9. Error bars show standard errors of the mean (SEM). *: P<0.05; […]***: P<0.001.
Firstly, we screened four USP7-specific inhibitors (P5091, FT671. GNE-6776, and HBX 19818) and 1 pan-USPs inhibitor (PR-619) to characterize their inhibitory effect on E7 expression in HPV-containing cancer cells. We treated CaSki (HPV16-positive) cancer cells with P5091 at 5 μM and 10 μM; FT671, GNE-6776 and PR-619 at 3 μM and 15 μM; as well as HBX 19818 at 3 μM and 6 μM. These concentrations were chosen based on the reported IC50 values. After 24-hr treatment, the cells were collected, and total cell lysates were resolved by SDS-PAGE. The expression levels of USP7 and E7 were detected using respective specific antibodies.

[2] = system: SCC25 (HPV-negative) cancer cells; assay: Matrigel invasion assay, SCC25; format: cell-based, human; conditions: SCC25, HBX 19818 versus DMSO, 24-hr
Method: FIGS. 6A-6D. […] The representative images showing the cell invasion of (FIG. 6A) CaSki (HPV-positive) and (FIG. 6C) SCC25 (HPV-negative) cancer cells in the presence of DMSO (vehicle control) or HBX 19818 at concentrations indicated. Cells were seeded into the invasion chamber with plain medium, followed by treatment with either DMSO or HBX 19818 for 24 hours. Cell invasion was observed and recorded using an optical microscope at 40× magnification. The bar graph comparing the relative cell invasion ability of (FIG. 6B) CaSki and (FIG. 6D) SCC25 with DMSO or HBX 19818 (n=3). Data indicated are mean±standard error of the mean (SEM). **: P<0.01; ***: P<0.001.
We next examined the ability of CaSki and SCC25 cells to invade through Matrigel, which mimics the basement membrane. Approximately 5×10^4 of CaSki and SCC25 cells were seeded into the inserts containing serum-free DMEM medium with either DMSO or HBX 19818. We included MCF7, a non-invasive breast cancer cell line as a negative control. DMEM supplemented with 20% FBS was added into the bottom chamber to attract cells to migrate from the upper to the lower surface of the inserts. After 24-hr incubation at 37° C., the non-invasive cells on the upper surface were removed using cotton swabs. Cells on the lower surface were fixed and stained using hematoxylin. […]

[3] = system: CaSki (HPV16-positive) cancer cells; assay: Wound-healing (migration) assay, CaSki; format: cell-based, human; conditions: 24 hrs, DMSO 98.46%±0.36%
Method: The representative images showing the cell migration of (FIG. 5A) CaSki (HPV16-positive) and (FIG. 5C) SCC25 (HPV-negative) cancer cells after scratching. Cells were seeded into 12-well plate and scratched when reached 100% confluence, followed by incubation with DMSO (vehicle control) or HBX 19818 at concentrations indicated for 24 hours. Cell migration was observed and recorded using a time-lapse microscope every 6 hours. The bar chart comparing the relative coverage areas of (FIG. 5B) CaSki and (FIG. 5D) SCC25 with DMSO or HBX 19818 (n=3). Data indicated are mean±SEM. *: P<0.05; **: P<0.01.
We performed a wound-healing assay to ascertain the ability of CaSki and SCC25 cells to migrate under HBX 19818 treatment. Cells were seeded into a 12-well plate and cultured to reach 100% confluency. Cells were then scratched to make artificial wounds on the monolayer of cells and incubated with either DMSO or HBX 19818 at 3 μM or 6 μM. Cells migration was monitored using time-lapse microscopy where images were taken 6-hourly for a duration of 24 hrs.

HBX 19818
Level of E7 with increasing concentration ([1]; 1.5 μM, 3.0 μM, 6.0 μM and 12.0 μM): decreased at a dose-dependent manner | E7 protein level after inhibitor treatment ([1]; 3 μM and 6 μM, 24-hr treatment, triplicate experiments): dramatic reduction of E7 protein level | IC50 ([1]; non-linear regression, read-out: Concentration sufficient to halve the level of E7 protein): 2800 nM | Invasive ability [2]: similar | Cell migration ability (relative coverage area) ([3]; 3 μM): 85.58%±4.39% | Cell migration ability (relative coverage area) ([3]; 6 μM): 53.24%±8.96%
